Measured values published in US12606544B2, “JAK1 selective kinase inhibitor” (DIZAL (JIANGSU) PHARMACEUTICAL CO., LTD., priority 2019, dated 2026).
Like-named read-outs stand apart in the source and are kept apart here.

Tests used:
[1] = target: T1, JAK1 (Homo sapiens, UniProt P23458); test: Lance Ultra Kinase Assay, recombinant JAK1; format: biochemical; settings: 5 mM ATP
T1 construct: purchased Carna Biosciences
Description: (§1) Recombinant JAK1, JAK2, JAK3 and TYK2 purchased from Carna Biosciences. The inhibition potency of compounds against JAK1, JAK2, JAK3 and TYK2 was assessed using Lance Ultra Kinase Assay.
(§2) In brief, recombinant kinases were pre-incubated in the presence or absence of compound at room temperature for 15 minutes. The reaction was initiated by the addition of 5 mM ATP and substrate peptide which could be phosphorylated by kinases in the reaction. After 60 minutes incubation, the reaction was stopped by the addition of the detection reagent mix containing EDTA. The fluorescence was measured at 615 nm and 665 nm, respectively with excitation wavelength at 320 nm. The calculated signal ratio of 665 nm/615 nm is proportional to the kinase activity.

[2] = target: T2, JAK2 (Homo sapiens, UniProt O60674); test: Lance Ultra Kinase Assay, recombinant JAK2; format: biochemical; settings: 5 mM ATP
T2 construct: purchased Carna Biosciences
Description: as §1, §2

[3] = target: T3, JAK3 (Homo sapiens, UniProt P52333); test: Lance Ultra Kinase Assay, recombinant JAK3; format: biochemical; settings: 5 mM ATP
T3 construct: purchased Carna Biosciences
T3 sequence (P52333 1-1124): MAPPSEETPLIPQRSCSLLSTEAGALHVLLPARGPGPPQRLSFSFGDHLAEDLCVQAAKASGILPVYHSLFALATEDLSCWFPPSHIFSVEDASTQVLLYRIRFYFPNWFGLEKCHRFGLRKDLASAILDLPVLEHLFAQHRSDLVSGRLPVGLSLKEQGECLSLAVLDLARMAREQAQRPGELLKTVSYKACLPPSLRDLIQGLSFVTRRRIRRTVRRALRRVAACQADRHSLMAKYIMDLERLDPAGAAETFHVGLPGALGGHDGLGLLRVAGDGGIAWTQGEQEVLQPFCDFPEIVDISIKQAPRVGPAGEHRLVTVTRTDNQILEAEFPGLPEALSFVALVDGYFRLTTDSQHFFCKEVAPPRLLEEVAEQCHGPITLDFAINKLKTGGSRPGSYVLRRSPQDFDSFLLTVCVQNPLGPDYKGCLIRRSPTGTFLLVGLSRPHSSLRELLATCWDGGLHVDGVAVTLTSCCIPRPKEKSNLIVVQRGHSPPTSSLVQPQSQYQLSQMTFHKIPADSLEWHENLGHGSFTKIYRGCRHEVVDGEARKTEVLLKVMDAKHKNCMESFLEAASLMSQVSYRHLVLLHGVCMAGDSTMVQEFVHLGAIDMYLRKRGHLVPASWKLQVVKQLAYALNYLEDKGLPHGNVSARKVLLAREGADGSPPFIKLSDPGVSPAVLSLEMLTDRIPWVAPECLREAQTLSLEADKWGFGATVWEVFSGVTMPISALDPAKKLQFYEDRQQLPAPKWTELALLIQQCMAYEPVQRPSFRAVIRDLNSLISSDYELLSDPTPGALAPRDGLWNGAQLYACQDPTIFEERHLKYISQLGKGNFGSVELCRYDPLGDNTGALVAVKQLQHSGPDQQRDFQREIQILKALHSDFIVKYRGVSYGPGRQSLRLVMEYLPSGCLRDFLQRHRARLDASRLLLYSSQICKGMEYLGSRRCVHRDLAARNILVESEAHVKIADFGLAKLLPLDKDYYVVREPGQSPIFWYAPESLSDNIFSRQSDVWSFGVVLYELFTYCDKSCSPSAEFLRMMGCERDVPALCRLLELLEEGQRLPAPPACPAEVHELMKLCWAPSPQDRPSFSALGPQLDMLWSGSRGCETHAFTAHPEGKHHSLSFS
Description: as §1, §2

[4] = target: T4, TYK2 (Homo sapiens, UniProt P29597); test: Lance Ultra Kinase Assay, recombinant TYK2; format: biochemical; settings: 5 mM ATP
T4 construct: purchased Carna Biosciences
Description: as §1, §2

[5] = test system: phosphorylation of STAT6; test: Cellular p-STAT6 assay, IL-13 stimulated THP-1 cells, flow cytometry; format: cell-based; settings: IL-13 10 ng/ml, read-out: pSTAT6 IC50
Description: To detect phosphorylated STAT6 (pSTAT6), THP-1 cells were harvested by centrifugation at 250 g for 5 min and resuspended in assay medium (RPMI1640+10% FBS) to 2×10^5 cells/well. Test compounds were applied to assay plates in serial dilution from 1 μM to 0.3 nM in DMSO. THP-1 cells were incubated with serial diluted compounds for 60 min at room temperature, followed by stimulation of interleukin (IL-13, 10 ng/ml) for 30 min, fixed in Cytofix buffer (BD Biosciences), and permeabilized in 90% methanol on ice. PE anti-pSTAT6 (BD Biosciences) antibodies were stained for 60 min at room temperature before being analyzed by flow cytometry. In the assay the compounds were thus diluted and dose-response curves for inhibition of the signal determine the IC50 for the compounds.

[6] = Homo sapiens, THP-1, THP-1 cells

T2 sequence (O60674 whole entry): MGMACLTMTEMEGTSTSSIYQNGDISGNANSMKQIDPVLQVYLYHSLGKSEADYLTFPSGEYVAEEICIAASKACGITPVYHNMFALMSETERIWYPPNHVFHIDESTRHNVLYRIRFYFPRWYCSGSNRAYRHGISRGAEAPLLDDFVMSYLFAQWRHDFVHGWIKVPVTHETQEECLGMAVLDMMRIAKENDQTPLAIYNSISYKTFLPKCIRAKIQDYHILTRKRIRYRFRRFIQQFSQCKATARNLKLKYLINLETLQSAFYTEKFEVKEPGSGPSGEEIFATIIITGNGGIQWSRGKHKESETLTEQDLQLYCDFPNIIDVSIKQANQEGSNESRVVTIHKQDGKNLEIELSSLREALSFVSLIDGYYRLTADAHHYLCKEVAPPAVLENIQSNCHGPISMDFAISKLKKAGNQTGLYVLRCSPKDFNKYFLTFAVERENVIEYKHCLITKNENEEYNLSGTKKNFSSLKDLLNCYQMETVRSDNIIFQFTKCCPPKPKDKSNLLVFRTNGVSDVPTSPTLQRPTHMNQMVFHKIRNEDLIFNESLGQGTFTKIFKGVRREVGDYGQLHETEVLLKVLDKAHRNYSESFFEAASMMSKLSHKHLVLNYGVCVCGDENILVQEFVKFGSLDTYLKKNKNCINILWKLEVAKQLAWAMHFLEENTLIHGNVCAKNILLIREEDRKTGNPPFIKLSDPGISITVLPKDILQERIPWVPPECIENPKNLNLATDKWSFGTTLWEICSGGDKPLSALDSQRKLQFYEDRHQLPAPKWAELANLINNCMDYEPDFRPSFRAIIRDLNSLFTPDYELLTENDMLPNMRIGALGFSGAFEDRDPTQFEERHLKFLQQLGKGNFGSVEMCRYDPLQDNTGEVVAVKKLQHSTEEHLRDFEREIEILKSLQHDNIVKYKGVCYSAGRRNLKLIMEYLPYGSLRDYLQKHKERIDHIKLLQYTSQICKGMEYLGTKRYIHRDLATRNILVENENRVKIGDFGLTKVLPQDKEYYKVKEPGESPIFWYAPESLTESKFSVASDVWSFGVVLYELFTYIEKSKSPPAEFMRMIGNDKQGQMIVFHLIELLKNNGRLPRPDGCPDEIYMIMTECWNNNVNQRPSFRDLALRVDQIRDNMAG
T1 sequence (P23458 whole entry): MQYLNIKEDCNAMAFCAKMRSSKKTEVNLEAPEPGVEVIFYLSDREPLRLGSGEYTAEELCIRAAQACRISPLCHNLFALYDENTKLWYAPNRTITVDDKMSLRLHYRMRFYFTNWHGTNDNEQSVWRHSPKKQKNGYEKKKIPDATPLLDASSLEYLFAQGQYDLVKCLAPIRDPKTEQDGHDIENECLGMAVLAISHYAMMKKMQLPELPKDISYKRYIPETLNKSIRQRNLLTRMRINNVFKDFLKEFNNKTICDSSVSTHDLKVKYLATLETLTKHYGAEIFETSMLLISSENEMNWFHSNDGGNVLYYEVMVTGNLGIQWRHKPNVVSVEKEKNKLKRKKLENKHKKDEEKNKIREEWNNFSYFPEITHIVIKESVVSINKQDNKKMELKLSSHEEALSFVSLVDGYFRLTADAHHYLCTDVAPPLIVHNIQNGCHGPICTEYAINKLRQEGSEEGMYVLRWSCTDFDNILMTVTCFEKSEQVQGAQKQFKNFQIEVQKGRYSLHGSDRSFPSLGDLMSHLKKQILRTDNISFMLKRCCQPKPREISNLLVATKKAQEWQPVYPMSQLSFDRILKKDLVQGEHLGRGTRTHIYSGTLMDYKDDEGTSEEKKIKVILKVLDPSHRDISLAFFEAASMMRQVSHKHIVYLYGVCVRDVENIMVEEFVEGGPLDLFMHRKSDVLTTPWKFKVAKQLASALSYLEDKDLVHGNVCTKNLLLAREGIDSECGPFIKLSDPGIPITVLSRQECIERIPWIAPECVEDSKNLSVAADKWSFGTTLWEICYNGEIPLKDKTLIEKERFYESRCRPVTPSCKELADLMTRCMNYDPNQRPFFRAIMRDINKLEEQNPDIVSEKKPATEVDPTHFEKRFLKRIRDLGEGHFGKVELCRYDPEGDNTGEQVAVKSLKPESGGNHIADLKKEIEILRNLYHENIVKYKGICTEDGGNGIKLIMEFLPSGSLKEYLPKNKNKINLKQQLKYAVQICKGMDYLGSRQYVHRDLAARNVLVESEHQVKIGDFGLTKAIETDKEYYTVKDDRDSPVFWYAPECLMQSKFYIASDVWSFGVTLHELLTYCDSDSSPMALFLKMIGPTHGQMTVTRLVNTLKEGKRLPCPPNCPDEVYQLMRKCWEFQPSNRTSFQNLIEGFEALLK
T4 sequence (P29597 whole entry): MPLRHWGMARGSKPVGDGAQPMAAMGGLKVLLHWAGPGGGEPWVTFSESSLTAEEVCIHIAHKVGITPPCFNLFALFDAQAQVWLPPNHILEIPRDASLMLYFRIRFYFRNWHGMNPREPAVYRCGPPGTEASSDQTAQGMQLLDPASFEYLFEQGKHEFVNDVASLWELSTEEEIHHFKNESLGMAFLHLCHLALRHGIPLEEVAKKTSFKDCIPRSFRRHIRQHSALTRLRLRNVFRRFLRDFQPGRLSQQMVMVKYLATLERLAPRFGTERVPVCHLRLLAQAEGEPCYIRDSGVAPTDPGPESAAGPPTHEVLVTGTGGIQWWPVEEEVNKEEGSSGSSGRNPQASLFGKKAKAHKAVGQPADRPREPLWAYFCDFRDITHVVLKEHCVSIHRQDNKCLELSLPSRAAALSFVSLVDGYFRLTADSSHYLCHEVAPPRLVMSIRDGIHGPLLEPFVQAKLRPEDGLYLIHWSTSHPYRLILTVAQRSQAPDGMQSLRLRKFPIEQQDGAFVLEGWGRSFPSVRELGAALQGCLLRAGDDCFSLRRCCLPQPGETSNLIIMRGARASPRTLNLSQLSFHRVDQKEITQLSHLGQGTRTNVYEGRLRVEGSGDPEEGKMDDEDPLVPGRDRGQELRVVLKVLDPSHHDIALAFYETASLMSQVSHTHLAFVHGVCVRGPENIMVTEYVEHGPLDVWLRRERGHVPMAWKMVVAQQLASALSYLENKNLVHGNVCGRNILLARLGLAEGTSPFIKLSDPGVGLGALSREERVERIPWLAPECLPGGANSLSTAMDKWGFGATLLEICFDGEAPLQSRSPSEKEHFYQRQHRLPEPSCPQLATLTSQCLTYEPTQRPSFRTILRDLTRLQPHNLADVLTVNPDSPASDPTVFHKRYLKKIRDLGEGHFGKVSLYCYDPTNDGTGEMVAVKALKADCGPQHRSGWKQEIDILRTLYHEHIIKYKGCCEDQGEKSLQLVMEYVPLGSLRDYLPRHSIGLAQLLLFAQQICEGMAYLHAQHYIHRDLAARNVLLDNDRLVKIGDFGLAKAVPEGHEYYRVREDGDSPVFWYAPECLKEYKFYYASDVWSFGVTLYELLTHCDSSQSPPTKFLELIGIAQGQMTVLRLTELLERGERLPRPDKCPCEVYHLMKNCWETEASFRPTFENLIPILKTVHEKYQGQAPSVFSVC

Compound: COC[C@H](C(=O)Nc1cccc2c(-c3nc(Nc4ccc5c(CO)ncn5c4)ncc3F)c[nH]c12)N1CCN(C)CC1 [Example 46, (R)-N-(3-(5-fluoro-2-((1-(hydroxymethyl)imidazo[1,5-a]pyridin-6-yl)amino)pyrimidin-4-yl)-1H-indol-7-yl)-3-methoxy-2-(4-methylpiperazin-1-yl)propanainide]
- IC50 [1]: 1.52 nM
- IC50 [2]: 322 nM
- IC50 [3]: > 10000 nM
- IC50 [4]: > 10000 nM
- IC50 [5, 6]: 13.5 nM

Compound: COC[C@H](C(=O)Nc1cccc2c(-c3nc(Nc4ccc(C(C)O)nc4)ncc3F)c[nH]c12)N1CCN(C)CC1 (single isomer, unassigned; isomer 1) [Example 29, 5-fluoro-2-((6-(1-hydroxyethyl)pyridin-3-yl)amino)pyrimidin-4-yl)-1H-indol-7-yl)-3-methoxy-2-(4-methylpiperazin-1-yl)propanamide (isomer 1)]
- IC50 [1]: 0.31 nM
- IC50 [2]: 74 nM
- IC50 [3]: > 10000 nM
- IC50 [4]: 939 nM
- IC50 ([5]; THP-1 cells): 9.8 nM

Compound: COC[C@H](C(=O)Nc1cccc2c(-c3nc(Nc4cnn(C5CCOCC5)c4)ncc3F)c[nH]c12)N1CCN(C)CC1 [Example 18, (R)-N-(3-(5-fluoro-2-((1-(tetrahydro-2H-pyran-4-yl)-1H-pyrazol-4-yl)amino)pyrimidin-4-yl)-1H-indol-7-yl)-3-methoxy-2-(4-methylpiperazin-1-yl)propanamide]
- IC50 [1]: 0.14 nM
- IC50 [2]: 22 nM
- IC50 [3]: 7730 nM
- IC50 [4]: 1090 nM
- IC50 [5, 6]: 7.6 nM

Compound: COC[C@H](C(=O)Nc1cccc2c(-c3nc(Nc4ccc(OCc5ncco5)nc4)ncc3F)c[nH]c12)N1CCN(C)CC1 [Example 54, (R)-N-(3-(5-fluoro-2-((6-(oxazol-2-ylmethoxy)pyridin-3-yl)amino)pyrimidin-4-yl)-1H-indol-7-yl)-3-methoxy-2-(4-methylpiperazin-1-yl)propanamide]
- IC50 [1]: 0.86 nM
- IC50 [2]: 219 nM
- IC50 [3]: > 10000 nM
- IC50 [4]: 4880 nM
- IC50 [5, 6]: 15.3 nM

Compound: COC[C@H](C(=O)Nc1cccc2c(-c3nc(Nc4cnc(CO)c(OC)c4)ncc3F)c[nH]c12)N1CCN(C)CC1 [Example 34, (R)-N-(3-(5-fluoro-2-((6-(hydroxymethyl)-5-methoxypyridin-3-yl)amino)pyrimidin-4-yl)-1H-indol-7-yl)-3-methoxy-2-(4-methylpiperazin-1-yl)propanamide]
- IC50 [1]: 0.18 nM
- IC50 [2]: 12 nM
- IC50 [3]: > 10000 nM
- IC50 [4]: 447 nM
- IC50 [5, 6]: 11.3 nM

Compound: CNC(=O)COc1cncc(Nc2ncc(F)c(-c3c[nH]c4c(NC(=O)[C@@H](COC)N5CCN(C)CC5)cccc34)n2)c1 [Example 68, (R)-N-(3-(5-fluoro-2-((5-(2-(methylamino)-2-oxoethoxy)pyridin-3-yl)amino)pyrimidin-4-yl)-1H-indol-7-yl)-3-methoxy-2-(4-methylpiperazin-1-yl)propanamide]
- IC50 [1]: 0.22 nM
- IC50 [2]: 71 nM
- IC50 [3]: 5360 nM
- IC50 [4]: 1230 nM
- IC50 [5, 6]: 20.9 nM

Compound: COC[C@H](C(=O)Nc1cccc2c(-c3nc(Nc4cncc(C(=O)OC)c4)ncc3F)c[nH]c12)N1CCN(C)CC1 [Example 21, methyl (R)-5-((5-fluoro-4-(7-(3-methoxy-2-(4-methylpiperazin-1-yl)propanamido)-1H-indol-3-yl)pyrimidin-2-yl)amino)nicotinate]
- IC50 [1]: 0.2 nM
- IC50 [2]: 125 nM
- IC50 [3]: > 10000 nM
- IC50 [4]: 1150 nM
- IC50 [5, 6]: 8.4 nM

Compound: COC[C@H](C(=O)Nc1cccc2c(-c3nc(Nc4ccc(C(C)O)nc4)ncc3F)c[nH]c12)N1CCN(C)CC1 (single isomer, unassigned; isomer 2) [Example 9]
- IC50 [1]: 0.25 nM
- IC50 [2]: 20 nM
- IC50 [3]: 9950 nM
- IC50 [4]: 330 nM
- IC50 [5, 6]: 6.5 nM

Compound: COC[C@H](C(=O)Nc1cccc2c(-c3nc(Nc4ccc(NC(=O)OC)nc4)ncc3F)c[nH]c12)N1CCN(C)CC1 [Example 52, methyl (R)-(5-((5-fluoro-4-(7-(3-methoxy-2-(4-methylpiperazin-1-yl)propanamido)-1H-indol-3-yl)pyrimidin-2-yl)amino)pyridin-2-yl)carbamate]
- IC50 [1]: 0.43 nM
- IC50 [2]: 363 nM
- IC50 [3]: > 10000 nM
- IC50 [4]: 2170 nM
- IC50 [5, 6]: 15 nM

Compound: COC[C@H](C(=O)Nc1cccc2c(-c3nc(Nc4cnc5cn[nH]c5c4)ncc3F)c[nH]c12)N1CCN(C)CC1 [Example 19, (R)-N-(3-(2-((1H-pyrazolo[4,3-b]pyridin-6-yl)amino)-5-fluoropyrimidin-4-yl)-1H-indol-7-yl)-3-methoxy-2-(4-methylpiperazin-1-yl)propanamide]
- IC50 [1]: 0.27 nM
- IC50 [2]: 215 nM
- IC50 [3]: > 10000 nM
- IC50 [5, 6]: 7.7 nM

Compound: COC[C@H](C(=O)Nc1cccc2c(-c3nc(Nc4ccc(-c5ncco5)nc4)ncc3F)c[nH]c12)N1CCN(C)CC1 [Example 22, (R)-N-(3-(5-fluoro-2-((6-(oxazol-2-yl)pyridin-3-yl)amino)pyrimidin-4-yl)-1H-indol-7-yl)-3-methoxy-2-(4-methylpiperazin-1-yl)propanamide]
- IC50 [1]: 0.24 nM
- IC50 [2]: 467 nM
- IC50 [3]: > 10000 nM
- IC50 [4]: 5250 nM
- IC50 [5, 6]: 8.5 nM

Compound: COC[C@H](C(=O)Nc1cccc2c(-c3nc(Nc4cc(CO)c5cn[nH]c5c4)ncc3F)c[nH]c12)N1CCN(C)CC1 [Example 61, (R)-N-(3-(5-fluoro-2-((4-(hydroxymethyl)-1H-indazol-6-yl)amino)pyrimidin-4-yl)-1H-indol-7-yl)-3-methoxy-2-(4-methylpiperazin-1-yl)propanamide]
- IC50 [1]: 0.11 nM
- IC50 [2]: 8 nM
- IC50 [3]: 3590 nM
- IC50 [4]: 194 nM
- IC50 [5, 6]: 17.7 nM

Compound: COC[C@H](C(=O)Nc1cccc2c(-c3nc(Nc4cnn(-c5ccccc5C(=O)OC)c4)ncc3F)c[nH]c12)N1CCN(C)CC1 [Example 6, methyl (R)-2-(4-((5-fluoro-4-(7-(3-methoxy-2-(4-methylpiperazin-1-yl)propanamido)-1H-indol-3-yl)pyrimidin-2-yl)amino)-1H-pyrazol-1-yl)benzoate]
- IC50 [1]: 0.42 nM
- IC50 [2]: 452 nM
- IC50 [3]: > 10000 nM
- IC50 [4]: 4660 nM
- IC50 [5, 6]: 6 nM

Compound: COC[C@H](C(=O)Nc1cccc2c(-c3nc(Nc4ccc5ncoc5c4)ncc3F)c[nH]c12)N1CCN(C)CC1 [Example 50, (R)-N-(3-(2-(benzo[d]oxazol-6-ylamino)-5-fluoropyrimidin-4-yl)-1H-indol-7-yl)-3-methoxy-2-(4-methylpiperazin-1-yl)propanamide]
- IC50 [1]: 0.11 nM
- IC50 [2]: 119 nM
- IC50 [3]: > 10000 nM
- IC50 [4]: 772 nM
- IC50 [5, 6]: 14.4 nM

Compound: CCOC(=O)Cc1ccc(Nc2ncc(F)c(-c3c[nH]c4c(NC(=O)[C@@H](COC)N5CCN(C)CC5)cccc34)n2)cn1 [Example 31, ethyl (R)-2-(5-((5-fluoro-4-(7-(3-methoxy-2-(4-methylpiperazin-1-yl)propanamido)-1H-indol-3-yl)pyrimidin-2-yl)amino)pyridin-2-yl)acetate]
- IC50 [1]: 0.15 nM
- IC50 [2]: 218 nM
- IC50 [3]: > 10000 nM
- IC50 [4]: 1310 nM
- IC50 [5, 6]: 10.4 nM
